Laboratory results taken from patent publication US20250084062A1, “SUBSTITUTED QUINOLINE DERIVATIVE” (ASTELLAS PHARMA INC., priority 2021, published 2025).
Structures can show the parent of a compound that is named as a salt.

System: acetylcholine receptor clustering in C2Cl2 cells
Experiment: Induction of acetylcholine receptor clustering in mouse myoblasts C2Cl2 cells (Test Example 1)
Type: cell-based
Settings: for Emax / EC50: Mus musculus; for Emax: Myoblast, maximum response, area of acetylcholine receptor cluster region vs 10 ng/ml Agrin (100%), 0.1 ng/ml Agrin = 0%, read-out: Max; for EC50: Myotube, C2Cl2 myotubes, with 0.1 ng/ml Agrin, concentration giving 50% of cluster area of 10 ng/ml Agrin (100%), read-out: EC50; for response, % at 30 μM: vs 10 ng/ml Agrin (100%)
Experimental: Test Example 1: Evaluation of the Induction of Acetylcholine Receptor Clustering in Mouse Myoblasts C2Cl2 Cells
Induction of acetylcholine receptor clustering by the test compound was evaluated by using fluorescently-labeled Bungarotoxin to image and quantify the acetylcholine receptor cluster region induced by the differentiation of myoblasts into myotubes, and measure the change in area. The following test method was optimized with reference to various reports including FEBS let., 586, 3111-3116 (2012). When a concentration response curve is obtained by plotting the logarithmic concentration of the test compound on the horizontal axis and the ratio of the area of acetylcholine receptor cluster region on the vertical axis, the inducing action of the test compound can be determined.
A concentration response curve as an index indicating acetylcholine receptor clustering inducing action of the test compound in mouse C2Cl2 cells was prepared. C2Cl2 cells (ATCC Number: CRL-1772) were seeded at about 5000 cells/well on a 384-well plate (354667; Corning) coated with type I collagen and allowed to incubate at 37 degrees Celsius overnight in DMEM+20% FBS+1% penicillin/streptomycin medium. The following day, the medium was removed and replaced with a differentiation medium containing DMEM+2% FBS+1% penicillin/streptomycin, and allowed to incubate at 37 degrees Celsius for 4 days. The test compound was dissolved in DMSO and added to a differentiation medium containing 0.1 ng/ml Agrin (550-AG-100; R&D systems) such that the final concentration was […] (3-fold serial dilution) or 0.00017 to 3.3 μM (3-fold serial dilution). The final concentration of DMSO was 0.3%. After the 4 days of incubation, the differentiation medium was replaced with a differentiation medium containing the test compound and 0.1 ng/ml Agrin or a differentiation medium containing 0.1 ng/ml Agrin or 10 ng/ml Agrin alone, and allowed to incubate at 37 degrees Celsius overnight. The next day, 10 μl of DMEM containing Bungarotoxin-Alexa488 (B13422; Life technologies) was added to the differentiation medium containing test compound and Agrin and Agrin alone so that the final concentration of Bungarotoxin-Alexa488 was 1 μg/ml, and was allowed to incubate at 37 degrees Celsius for 1 hour to label the acetylcholine receptor. After removing all the medium, 4% PFA was added to each well and allowed to incubate at room temperature for 10 minutes, then washed with PBS, and allowed to incubate at room temperature for 30 minutes in PBS containing 5% goat serum and 0.3% Triton X-100. After removing the PBS solution, PBS-Tween20 (28352; Thermo fisher scientific) containing Anti-Myosin Heavy Chain eFluor (registered trademark) 660 (50-6503-82; eBioscience) and DAPI (340-07971; Dojindo) was added to each well and allowed to incubate at room temperature for 1 hour to label the myotubes and nuclei. After washing three times with PBS-Tween20, the fluorescence was imaged using IN Cell Analyzer 6000 (GE Healthcare). […] The response of control group (1) was regarded as 0% and the response of the control group (2) was regarded as 100%. For quantification, the signal of only the acetylcholine receptor present in the myotube was used to eliminate non-specific fluorescence.
EC50 and Max value were used as indicators of activity in order to quantitatively evaluate the inducing action of the test compound on acetylcholine receptor clustering. EC50 value is a test compound concentration which indicates 50% in terms of the area of acetylcholine receptor cluster region compared to that of 10 ng/ml Agrin (regarded as 100%) in the concentration response curve. EC50 was calculated by nonlinear regression analysis from the concentration response curve using the area of the cluster region of the test compound as an index. Max value is the maximum response value. […]

SMILES: Cc1cc(-c2ccc(S(=O)(=O)N3CC[C@H](F)C3)cc2F)nc2cc(OCCN)ccc12 [Example 13, 2-[(2-{2-fluoro-4-[(3S)-3-fluoropyrrolidine-1-sulfonyl]phenyl}-4-methylquinolin-7-yl)oxy]ethan-1-amine hydrochloride]
- Emax: 117%
- EC50: 3 nM

SMILES: Cc1cc(-c2c(F)cc(S(=O)(=O)N3CCC(F)CC3)cc2F)nc2cc(C(=O)N3CC4(CNC4)C3)ccc12 [Example 14, (2,6-diazaspiro[3.3]heptan-2-yl) {2-[2,6-difluoro-4-(4-fluoropiperidine-1-sulfonyl)phenyl]-4-methylquinolin-7-yl}methanone]
- Emax: 83.5%
- EC50: 21 nM

SMILES: CNCCNC(=O)c1ccc2c(C)cc(-c3c(F)cc(S(=O)(=O)N4CC[C@H](F)C4)cc3F)c(F)c2n1 [Example 15, 7-{2,6-difluoro-4-[(3S)-3-fluoropyrrolidine-1-sulfonyl]phenyl}-8-fluoro-5-methyl-N-[2-(methylamino)ethyl]quinoline-2-carboxamide hydrochloride]
- Emax: 105%
- EC50: 2 nM

SMILES: CNCCCc1ccc2c(C)c(F)c(-c3c(F)cc(S(=O)(=O)N4CC[C@H](F)C4)cc3F)nc2c1 [Example 16, 3-(2-{2,6-difluoro-4-[(3S)-3-fluoropyrrolidine-1-sulfonyl]phenyl}-3-fluoro-4-methylquinolin-7-yl)-N-methylpropan-1-amine hydrochloride]
- Emax: 91.1%
- EC50: 45 nM

SMILES: Cc1cc(-c2c(F)cc(S(=O)(=O)N3CC[C@H](F)C3)cc2F)nc2nc(C3CCN(C)CC3)ccc12 [Example 17, 2-{2,6-difluoro-4-[(3S)-3-fluoropyrrolidine-1-sulfonyl]phenyl}-4-methyl-7-(1-methylpiperidin-4-yl)-1,8-naphthyridine hydrochloride]
- Emax: 78.7%
- EC50: 65 nM

SMILES: Cc1c(F)c(-c2c(F)cc(S(=O)(=O)N3CC[C@H](F)C3)cc2F)nc2cc(C(=O)O)ccc12 [Example 20, 2-{2,6-difluoro-4-[(3S)-3-fluoropyrrolidine-1-sulfonyl]phenyl}-3-fluoro-4-methylquinoline-7-carboxylic acid]
- Emax: 86.5%
- EC50: 13 nM

SMILES: Cc1cc(-c2c(F)cc(S(=O)(=O)N3CCCC3)cc2F)nc2cc(C(=O)O)ccc12 [Example 21]
- Emax: 97.3%
- EC50: 147 nM

SMILES: Cc1cc(-c2c(F)cc(S(=O)(=O)N3CC[C@@H](F)C3)cc2F)nc2cc(C(=O)O)ccc12 [Example 22]
- Emax: 84.8%
- EC50: 1900 nM

SMILES: Cc1c(F)c(-c2c(F)cc(S(=O)(=O)N3CCCC3)cc2F)nc2cc(C(=O)O)ccc12 [Example 23]
- Emax: 85.9%
- EC50: 69 nM

SMILES: Cc1c(F)c(-c2c(F)cc(S(=O)(=O)N3CCC[C@@H]3C)cc2F)nc2cc(C(=O)O)ccc12 [Example 24]
- Emax: 92.3%
- EC50: 11 nM

SMILES: Cc1c(F)c(-c2c(F)cc(S(=O)(=O)N3CCCC34CC4)cc2F)nc2cc(C(=O)O)ccc12 [Example 25]
- Emax: 105%
- EC50: 182 nM

SMILES: Cc1c(F)c(-c2c(F)cc(S(=O)(=O)N3CCCC3(C)C)cc2F)nc2cc(C(=O)O)ccc12 [Example 26]
- Emax: 99.8%
- EC50: 19 nM

SMILES: Cc1cc(-c2ccc(S(=O)(=O)N3C[C@@H](F)[C@H](F)C3)cc2F)nc2cc(C(=O)O)ccc12 [Example 27]
- Emax: 94.6%
- EC50: 103 nM

SMILES: Cc1cc(-c2ccc(S(=O)(=O)N3C[C@@H](F)C[C@H]3CO)cc2F)nc2cc(C(=O)O)ccc12 [Example 28]
- Emax: 74.2%
- EC50: 4030 nM

SMILES: CO[C@@H]1CN(S(=O)(=O)c2ccc(-c3cc(C)c4ccc(C(=O)O)cc4n3)c(F)c2)C[C@H]1F [Example 29]
- Emax: 46.2%
- response, % at 30 μM: 46.2% at 30 μM

SMILES: Cc1cc(-c2ccc(S(=O)(=O)N3CC[C@H](F)C3)cc2C#N)nc2cc(C(=O)O)ccc12 [Example 30]
- Emax: 94.7%
- EC50: 1120 nM

SMILES: Cc1cc(-c2ccc(S(=O)(=O)N3CC[C@H](F)C3)cc2CO)nc2cc(C(=O)O)ccc12 [Example 31]
- Emax: 48.8%
- response, % at 30 μM: 48.8% at 30 μM

SMILES: COCc1cc(S(=O)(=O)N2CC[C@H](F)C2)ccc1-c1cc(C)c2ccc(C(=O)O)cc2n1 [Example 32]
- Emax: 38.8%
- response, % at 30 μM: 38.8% at 30 μM

SMILES: Cc1cc(-c2c(F)cc(S(=O)(=O)N3CC[C@H](F)C3)cc2F)nc2cc(CC(=O)O)ccc12 [Example 33]
- Emax: 86.1%
- EC50: 65 nM

SMILES: Cc1cc(-c2c(F)cc(S(=O)(=O)N3CC[C@H](F)C3)cc2F)nc2cc(CCC(=O)O)ccc12 [Example 34]
- Emax: 94.1%
- EC50: 16 nM

SMILES: Cc1cc(-c2c(F)cc(S(=O)(=O)N3CC[C@H](F)C3)cc2F)nc2cc(/C=C/C(=O)O)ccc12 [Example 35]
- Emax: 99.5%
- EC50: 20 nM

SMILES: Cc1cc(-c2c(F)cc(S(=O)(=O)N3CC[C@H](F)C3)cc2F)nc2nc(C3=CCC(C(=O)O)CC3)ccc12 (some centres unmarked) [Example 36]
- Emax: 80.2%
- EC50: 392 nM

SMILES: Cc1cc(-c2c(F)cc(S(=O)(=O)N3CC[C@H](F)C3)cc2F)nc2nc(C3CCC(C(=O)O)CC3)ccc12 (some centres unmarked) [Example 37]
- Emax: 70.1%
- EC50: 3220 nM

SMILES: Cc1cc(-c2c(F)cc(S(=O)(=O)N3CCC(F)CC3)cc2F)nc2nc(C(=O)O)ccc12 [Example 38]
- Emax: 78.5%
- EC50: 724 nM

SMILES: Cc1cc(-c2c(F)cc(S(=O)(=O)N3CC[C@H](F)C3)cc2F)nc2nc(C(=O)O)ccc12 [Example 39]
- Emax: 78.2%
- EC50: 2570 nM

SMILES: Cc1cc(-c2c(F)cc(S(=O)(=O)N3CCC(F)CC3)cc2F)nc2cc(C(=O)NC3CN(C)C3)ccc12 [Example 41]
- Emax: 87%
- EC50: 52 nM

SMILES: Cc1cc(-c2c(F)cc(S(=O)(=O)N3CC[C@H](F)C3)cc2F)nc2cc(C(=O)N3CC4(CN(C)C4)C3)ccc12 [Example 42]
- Emax: 78.1%
- EC50: 19 nM

SMILES: Cc1cc(-c2c(F)cc(S(=O)(=O)N3CC[C@H](F)C3)cc2F)nc2cc(C(=O)NCCN(C)C)ccc12 [Example 43]
- Emax: 91.6%
- EC50: 21 nM

SMILES: Cc1c(F)c(-c2c(F)cc(S(=O)(=O)N3CCC(F)CC3)cc2F)nc2cc(C(=O)N3CC4(CN(C)C4)C3)ccc12 [Example 44]
- Emax: 81.8%
- EC50: 5 nM

SMILES: Cc1c(F)c(-c2c(F)cc(S(=O)(=O)N3CC[C@H](F)C3)cc2F)nc2cc(C(=O)N3CC4(CN(C)C4)C3)ccc12 [Example 45]
- Emax: 86.1%
- EC50: 9 nM

SMILES: Cc1cc(-c2c(F)cc(S(=O)(=O)N3CCC(F)CC3)cc2F)nc2nc(C(=O)N3CC4(CN(C)C4)C3)ccc12 [Example 46]
- Emax: 80.9%
- EC50: 43 nM

SMILES: Cc1cc(-c2ccc(S(=O)(=O)N3CCCCC3)cc2)nc2cc(C(=O)O)ccc12 [Example 47]
- Emax: 102%
- EC50: 428 nM

SMILES: Cc1cc(-c2ccc(S(=O)(=O)N3CCC[C@H]3CO)cc2F)nc2cc(C(=O)O)ccc12 [Example 48]
- Emax: 74%
- EC50: 3750 nM

SMILES: Cc1cc(-c2ccc(S(=O)(=O)N3C[C@@H](O)[C@H](F)C3)cc2F)nc2cc(C(=O)O)ccc12 [Example 49]
- Emax: 81.9%
- EC50: 1090 nM

SMILES: Cc1cc(-c2ccc(S(=O)(=O)N3CCC[C@H](O)C3)cc2F)nc2cc(C(=O)O)ccc12 [Example 50]
- Emax: 70.5%
- EC50: 3520 nM

SMILES: Cc1cc(S(=O)(=O)N2CC[C@H](F)C2)ccc1-c1nc2cc(C(=O)O)ccc2c(C)c1F [Example 51]
- Emax: 77.8%
- EC50: 159 nM

SMILES: Cc1cc(-c2c(F)cc(S(=O)(=O)N3CC[C@H](F)C3)cc2F)nc2cc(C(=O)NC[C@H]3COCCN3)ccc12 [Example 52]
- Emax: 94.2%
- EC50: 33 nM
